We go through ten molecules from US7807845B2, “Resistance-repellent retroviral protease inhibitors” (priority 2004, dated 2010).

In test [1] the test system is HIVmutant10 (16 mutations). Nature of the test: Antiviral assay in MT-4 cells (MTT), mutant 10 virus. It is filed as cell-based, HIV. The note with it: Human immunodeficiency virus 1, MT4, 120 h, read-out: IC50 Mutant 10. The procedure: (§1) MT-4 cells were obtained from the AIDS Research and Reference Reagent Program (ARRRP, Division of AIDS, NIAID, NIH: MT-4 from Dr. D. Richman). Cells were propagated in RPMI 1640 supplemented with 10% fetal bovine serum, 50U of penicillin and 50 μg of streptomycin per ml (Invitrogen, Carlsbad Calif.). The following HIV viruses were used for testing of antiviral potency of compounds: WT=HIVHXB2; recombinant HIVHXB2 virus from drug resistant patient isolates; HIVmutant10 (16 mutations); HIVmutant8 (14 mutations); HIVmutant9 (10 mutations).
(§2) The potency of test compound was determined as previously described (ref 1-3) with minor modifications. MT-4 cells (1.5×10^4/ml) were exposed to 200 50 % tissue culture infective doses (TCID50) of viruses in the presence of various concentrations of test compound in 96 well microtiter plates and incubated at 37° C. for 5 days. 3-(4,5-dimethylthiazol-2-yl)-2,5-diphenytetrazolium bromide (MTT) solution was added to a final concentration of 0.75 mg/ml, and plates were incubated 1 hour. After incubation cells were dissolved in isopropanol/Triton-X 100/HCl (1000:50:25) solution. Absorbance was monitored in a microplate reader (Spectramax, Molecular Devices) at 540 nm and 690 nm. Cytotoxicity of compounds was tested in a similar assay in the absence of virus.

Test [2] relates to HIVmutant8 (14 mutations). Nature of the test: Antiviral assay in MT-4 cells (MTT), mutant 8 virus. The note with it: Human immunodeficiency virus 1, MT4, 120 h, read-out: IC50 Mutant 8. It is filed as cell-based, HIV. The protocol: as §1, §2
The next test deals with WT=HIVHXB2. Briefly: Antiviral assay in MT-4 cells (MTT), WT virus. The note with it: Human immunodeficiency virus 1, MT4, 120 h, HIVHXB2, 5 days. It is filed as cell-based, HIV. The protocol:
as §1, §2

The target of a further test is T1, wild type HIV PR (Human immunodeficiency virus type 1 group M subtype B, UniProt P04585).
T1 construct: Recombinant wild type and mutant HIV PRs were expressed using pET21 vector (Novagen) in E. coli cells; made in house
Briefly: HIV PR inhibition assay, wild type. In kind it is biochemical. The protocol:
(§3) Expression and purification of WT and mutant HIV PR. Recombinant wild type and mutant HIV PRs were expressed using pET21 vector (Novagen) in E. coli cells, and purified and refolded as described previously (Gulnik et al, 1995). The cells were resuspended in 50 mM tris-HCl buffer, pH 8.0, 25 mM NaCl, 0.2% β-mercaptoethanol (buffer A), sonicated and centrifuged. Inclusion bodies were washed first with buffer A, then with buffer A containing respectively 0.1% Triton X-100, 1 M NaCl, 1 M urea, and finally with buffer A alone. Purified inclusion bodies were solubilized by addition of buffer A containing 8 M urea at room temperature. The solution was clarified by centrifugation and loaded onto 2.6×9.5 cm Q-Sepharose column. Flow-through fractions were collected and dialyzed against 3 changes of refolding buffer, which consists of 25 mM Na-phosphate, pH 7.0, 25 mM NaCl, 0.2% β-mercaptoethanol and 10% glycerol, aliquoted and stored at −80° C.
(§4) Inhibition constants were determined using the fluorogenic substrate ArgGlu(EDANS)[…]DABCYL)Arg (Amichem, USA). HIV Protease was preincubated for 0.5-1 min at ambient temperature on a 96 well plate with different concentrations of inhibitor in 0.05 M sodium phosphate buffer, pH 6.5, containing 20 mM NaCl, 2 mM DTT and 0.01% Tween-20. The reaction was initiated by the addition of substrate. Final enzyme concentration was 2-5 nM for WT and 2-30 nM for mutants. Substrate concentration was 20 uM and DMSO concentration 2%. The increase in fluorescence intensity at the emission maximum of 520 nm (excitation wavelength 340 nm, cut-off filter 495 nm) was monitored as a function of time using a Spectramax Gemini fluorescence plate reader (Molecular Devices, CA USA). The initial rate of hydrolysis was calculated by first-degree polynomial fit using SoftMAX operating software. Data were fitted to the Michaelis-Menten equation for competitive inhibitors. For tight-binding inhibitors the data were fitted by nonlinear regression analysis to the equation V=V0/2Et({[Ki(1+S/Km)+It−Et]^2+4Ki(1+S/Km)Et}^1/2−[Ki(1+S/Km)+It−Et]) (Williams and Morrison, 1979) with the program GraFit, version 5 (Erithacus Software Limited, UK), where V and V0 are initial velocities with and without inhibitor, Km is the Michaelis-Menten constant and S, Et and It are the concentrations of substrate, active enzyme and inhibitor respectively.

A further test addresses mutant HIV PR (Mutant 8) (Human immunodeficiency virus type 1 group M subtype B, UniProt P04585). Nature of the test: HIV PR inhibition assay, Mutant 8. In kind it is biochemical. As to conditions: read-out: Ki Mutant 8; recombinant mutant HIV PR, fluorogenic substrate, pH 6.5. The procedure:
as §3, §4

The test system of test [3] is HIVmutant9 (10 mutations). Nature of the test: Antiviral assay in MT-4 cells (MTT), mutant 9 virus. It is filed as cell-based, HIV. The note with it: Human immunodeficiency virus 1, MT4, 120 h, read-out: IC50 Mutant 9. The protocol:
as §1, §2

For test [4], the target named is mutant HIV PR (Mutant 10) (Human immunodeficiency virus type 1 group M subtype B, UniProt P04585). Nature of the test: HIV PR inhibition assay, Mutant 10. The note with it: read-out: Ki Mutant 10; recombinant mutant HIV PR, fluorogenic substrate, pH 6.5. It is filed as biochemical. The procedure: as §3, §4
A further test has as its target mutant HIV PR (Mutant 9) (Human immunodeficiency virus type 1 group M subtype B, UniProt P04585). Nature of the test: HIV PR inhibition assay, Mutant 9. It is filed as biochemical. The note with it: read-out: Ki Mutant 9; recombinant mutant HIV PR, fluorogenic substrate, pH 6.5. The procedure:
as §3, §4

A word on the IC50: it is the concentration that inhibits the measured activity by half. As a reminder, the Ki is the dissociation constant of the complex between target and ligand, obtained from inhibition or displacement. For `CC(C)CN(C[C@@H](O)[C@H](Cc1ccccc1)NC(=O)O[C@H]1CO[C@H]2OCC[C@H]21)S(=O)(=O)c1ccc2c(c1)/C(=C/NCC(C)(C)C)C(=O)N2` [Compound 22, [1-Benzyl-3-({3-[(2,2-dimethyl-propylamino)-methylene]-2-oxo-2,3-dihydro-1H-indole-5-sulfonyl}-isobutyl-amino)-2-hydroxy-propyl]-carbamic acid hexahydro-furo[2,3b]furan-3-yl ester], the IC50 was determined as 27 nM in test [1], 13 nM in test [2], 4.5 nM in the test with WT=HIVHXB2 and 9.5 nM in test [3]. In addition, the Ki was under 0.1 nM on wild type HIV PR, under 0.3 nM on mutant HIV PR (Mutant 8), under 1 nM in test [4] and 0.15 nM at mutant HIV PR (Mutant 9).
`CCCCNC=C1C(=O)Nc2ccc(S(=O)(=O)N(CC(C)C)CC(O)C(Cc3ccccc3)NC(=O)OC3COC4OCCC34)cc21` (centres unmarked) [Compound 57, {1-Benzyl-3-[(3-butylaminomethylene-2-oxo-2,3-dihydro-1H-indole-5-sulfonyl)-isobutyl-amino]-2-hydroxy-propyl}-carbamic acid hexahydro-furo[2,3-b]furan-3-yl ester]: the IC50 in test [1] turned out to be 40 nM; in test [2] it was 25 nM; in the test with WT=HIVHXB2 it was 13 nM; in test [3], 11 nM. For the same molecule, the Ki on wild type HIV PR was under 0.1 nM; at mutant HIV PR (Mutant 8), under 0.3 nM; in test [4], under 1 nM; on mutant HIV PR (Mutant 9), 0.19 nM.
For the molecule `CC(C)CN(CC(O)C(Cc1ccccc1)NC(=O)OC1COC2OCCC12)S(=O)(=O)c1ccc2c(c1)C(=CNCCCCc1ccccc1)C(=O)N2` (centres unmarked) [Compound 78, [1-Benzyl-2-hydroxy-3-(isobutyl-{2-oxo-3-[(4-phenyl-butylamino)-methylene]-2,3-dihydro-1H-indole-5-sulfonyl}-amino)-propyl]-carbamic acid hexahydro-furo[2,3-b]furan-3-yl ester], the IC50 in test [1] worked out at 105 nM; in test [2], 55 nM; in the test on WT=HIVHXB2, 11 nM; in test [3], 17 nM. Further, the Ki on wild type HIV PR was under 0.1 nM; at mutant HIV PR (Mutant 8), under 0.3 nM; in test [4] it was under 1 nM; at mutant HIV PR (Mutant 9), under 0.1 nM.
Turning to `CNC(C)=C1C(=O)Nc2ccc(S(=O)(=O)N(CC(C)C)CC(O)C(Cc3ccccc3)NC(=O)OC3COC4OCCC34)cc21` (centres unmarked) [Compound 41, (1-Benzyl-2-hydroxy-3-{isobutyl-[3-(1-methylamino-ethylidene)-2-oxo-2,3-dihydro-1H-indole-5-sulfonyl]-amino}-propyl)-carbamic acid hexahydro-furo[2,3-b]furan-3-yl ester], the IC50 is 56 nM in test [1], 29 nM in test [2], 10 nM in the test with WT=HIVHXB2 and 17 nM in test [3]. Also, the Ki on wild type HIV PR was under 0.1 nM; on mutant HIV PR (Mutant 8), under 0.3 nM; in test [4] it was under 1 nM; on mutant HIV PR (Mutant 9), under 0.1 nM.
As for `CCCCN(C=C1C(=O)Nc2ccc(S(=O)(=O)N(CC(C)C)CC(O)C(Cc3ccccc3)NC(=O)OC3COC4OCCC34)cc21)CC` (centres unmarked) [Compound 118], the IC50 in test [1] was found to be 60 nM; in test [2], 40 nM; in the test on WT=HIVHXB2, 13 nM; in test [3], 15 nM. The Ki at wild type HIV PR was under 0.1 nM; on mutant HIV PR (Mutant 8), under 0.3 nM; in test [4] it was 1.9 nM; at mutant HIV PR (Mutant 9), under 0.1 nM.
Turning to `CC(C)CC(C)NC=C1C(=O)Nc2ccc(S(=O)(=O)N(CC(C)C)CC(O)C(Cc3ccccc3)NC(=O)OC3COC4OCCC34)cc21` (centres unmarked) [Compound 104], the IC50 in test [1] was found to be 74 nM; in test [2], 33 nM; in the test on WT=HIVHXB2 it was 7 nM; in test [3], 16 nM. In addition, the Ki at wild type HIV PR is 0.17 nM; on mutant HIV PR (Mutant 8), under 0.3 nM; in test [4], 1.3 nM; at mutant HIV PR (Mutant 9) it was 0.25 nM.
As to `CCCC(C)NC=C1C(=O)Nc2ccc(S(=O)(=O)N(CC(C)C)CC(O)C(Cc3ccccc3)NC(=O)OC3COC4OCCC34)cc21` (centres unmarked) [Compound 108], the IC50 in test [1] is 80 nM; in test [2], 35 nM; with WT=HIVHXB2 it was 9 nM; in test [3] it was 15 nM. For the same molecule, the Ki on wild type HIV PR was under 0.1 nM; on mutant HIV PR (Mutant 8), under 0.3 nM; in test [4], under 1 nM; on mutant HIV PR (Mutant 9), under 0.1 nM.
In the case of `CC(C)CN(CC(O)C(Cc1ccccc1)NC(=O)OC1COC2OCCC12)S(=O)(=O)c1ccc2c(c1)C(=CNCC1CCCCC1)C(=O)N2` (centres unmarked) [Compound 72, [1-Benzyl-3-({3-[(cyclohexylmethyl-amino)-methylene]-2-oxo-2,3-dihydro-1H-indole-5-sulfonyl}-isobutyl-amino)-2-hydroxy-propyl]-carbamic acid hexahydro-furo[2,3-b]furan-3-yl ester], the IC50 stood at 40 nM in test [1], 27 nM in test [2], 9.7 nM with WT=HIVHXB2 and 9 nM in test [3]. Moreover, the Ki on wild type HIV PR was under 0.1 nM; on mutant HIV PR (Mutant 8), under 0.3 nM; in test [4], under 1 nM; at mutant HIV PR (Mutant 9), under 0.1 nM.
Take `CC(C)CN(CC(O)C(Cc1ccccc1)NC(=O)OC1COC2OCCC12)S(=O)(=O)c1ccc2c(c1)C(=CNCC(F)(F)C(F)(F)C(F)(F)F)C(=O)N2` (centres unmarked) [Compound 125]: the IC50 in test [1] stood at 39 nM; in test [2], 37 nM; in the test with WT=HIVHXB2, 14 nM; in test [3], 24 nM. Moreover, the Ki on wild type HIV PR was under 0.1 nM; on mutant HIV PR (Mutant 8), under 0.3 nM; in test [4], 1.2 nM; at mutant HIV PR (Mutant 9), 0.17 nM.
Take `CC(C)CN(CC(O)C(Cc1ccccc1)NC(=O)OC1COC2OCCC12)S(=O)(=O)c1ccc2c(c1)C(=CNCCc1ccccn1)C(=O)N2` (centres unmarked) [Compound 76, [1-Benzyl-2-hydroxy-3-(isobutyl-{2-oxo-3-[(2-pyridin-2-yl-ethylamino)-methylene]-2,3-dihydro-1H-indole-5-sulfonyl}-amino)-propyl]-carbamic acid hexahydro-furo[2,3-b]furan-3-yl ester]: the IC50 was determined as 28 nM in test [1], 61 nM in test [2], 33 nM in the test on WT=HIVHXB2 and 35 nM in test [3]. Also, the Ki on wild type HIV PR was under 0.1 nM; on mutant HIV PR (Mutant 8) it was under 0.3 nM; in test [4], under 1 nM; at mutant HIV PR (Mutant 9), under 0.1 nM.
